# Experiments:
# Test in all cases: relative viability (nuclei count vs DMSO), 5 days (fraction); higher = more cells survive
# NVP-TAE684 + Olaparib = compound: COc1cc(N2CCC(N3CCN(C)CC3)CC2)ccc1Nc1ncc(Cl)c(Nc2ccccc2S(=O)(=O)C(C)C)n1 [NVP-TAE684] + O=C(c1cc(Cc2n[nH]c(=O)c3ccccc23)ccc1F)N1CCN(C(=O)C2CC2)CC1 [Olaparib] (partner 8 µM)
# Outline: (§1)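 Relative viability is defined as nuclei in treated wells over nuclei in vehicle wells. Duplicate plates were run and medians reported. Lung cancer cell lines in 1536-well plates were dosed by pin tool one day after seeding, with one drug or with a fixed anchor-drug dose plus five library-drug doses (not always all listed) in √10 steps, and nuclei were counted after 5 days.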
# CUDC-101 + Pictilisib = compound: C#Cc1cccc(Nc2ncnc3cc(OC)c(OCCCCCCC(=O)NO)cc23)c1 [CUDC-101] + CS(=O)(=O)N1CCN(Cc2cc3nc(-c4cccc5[nH]ncc45)nc(N4CCOCC4)c3s2)CC1 [Pictilisib] (partner 1 µM)
# Outline: as §1
# [1] = compound: C1=CC=C2C(=C1)N=C(S2)C(C#N)C3=NC(=NC=C3)NCCC4=CN=CC=C4 + C[C@@H](Oc1cc(-c2cnn(C3CCNCC3)c2)cnc1N)c1c(Cl)ccc(F)c1Cl [Crizotinib] (partner 1 µM)
# Outline: as §1
# CUDC-101 + Alpelisib = compound: C#Cc1cccc(Nc2ncnc3cc(OC)c(OCCCCCCC(=O)NO)cc23)c1 [CUDC-101] + Cc1nc(NC(=O)N2CCC[C@H]2C(N)=O)sc1-c1ccnc(C(C)(C)C(F)(F)F)c1 [Alpelisib] (partner 2 µM)
# Outline: as §1
Cell Line,relative viability (NVP-TAE684 + Olaparib; first compound 0.2 µM),relative viability (NVP-TAE684 + Olaparib; first compound 0.6325 µM),relative viability (NVP-TAE684 + Olaparib; first compound 2 µM),relative viability (CUDC-101 + Pictilisib; first compound 0.01 µM),relative viability (CUDC-101 + Pictilisib; first compound 0.03162 µM),relative viability (CUDC-101 + Pictilisib; first compound 0.1 µM),relative viability (CUDC-101 + Pictilisib; first compound 0.3162 µM),relative viability (CUDC-101 + Pictilisib; first compound 1 µM),relative viability ([1]; first compound 0.005 µM),relative viability ([1]; first compound 0.01581 µM),relative viability ([1]; first compound 0.05 µM),relative viability ([1]; first compound 0.1581 µM),relative viability ([1]; first compound 0.5 µM),relative viability (CUDC-101 + Alpelisib; first compound 0.01 µM),relative viability (CUDC-101 + Alpelisib; first compound 0.03162 µM),relative viability (CUDC-101 + Alpelisib; first compound 0.1 µM),relative viability (CUDC-101 + Alpelisib; first compound 0.3162 µM),relative viability (CUDC-101 + Alpelisib; first compound 1 µM)
PC-14,0.237,0.255,0.0711,0.936,0.562,0.215,0.173,0.0519,0.856,0.961,0.929,0.972,0.744,0.983,0.894,0.62,0.673,0.287
RERF-LC-KJ,1.1,0.758,0.547,0.465,0.518,0.511,0.485,0.376,0.942,0.856,0.819,0.891,0.749,0.795,0.835,0.828,0.835,0.742
SK-LU-1,0.483,0.425,0.352,0.703,0.597,0.628,0.427,0.381,,0.853,0.95,1.16,0.907,1.18,1.05,1.11,0.812,0.505
SK-MES-1,0.794,0.668,0.405,0.356,0.34,0.317,0.256,0.184,1.11,1.12,0.99,1.14,0.902,0.798,0.877,0.879,0.874,0.592
SW 1573,0.519,0.401,0.148,0.582,0.507,0.587,0.532,0.313,0.753,0.809,0.722,0.793,0.785,0.861,0.797,0.852,1.08,0.739

# Source: the supplement of paper PMC10307832
